ChEMBL document CHEMBL5385876, “Discovery of unglycosylated indolocarbazoles as ROCK2 isoform-selective inhibitors for the treatment of breast cancer metastasis” (Eur J Med Chem, 2023)
Active and inactive are the calls of the source. The calls are words filed in the database; no cut-off is given here.

Legend:
[1] = molecular target: Rho-associated protein kinase 2 (Homo sapiens, UniProt O75116); test: Inhibition of N-terminal His10-StrepII tagged human ROCK2 catalytic domain (1 to 553 residues) expressed in Sf9 insect cells by HTRF assay
MDA-MB-231 [2] = test: Antimetastatic activity in human MDA-MB-231 cells assessed as increase in nuclear scales at 5 uM incubated for 24 hrs by FITC-conjugated phalloidin staining based confocal microscopic analysis; type: functional, cell-based
MDA-MB-231 [3] = test: Inhibition of cell migration in human MDA-MB-231 cells incubated for 48 hrs by scratch wound healing assay; type: functional, cell-based; conditions: dose 1.25-10 µM
[4] = Toxicity in BALB/c nude mouse xenografted with human MDA-MB-231 cells harboring Luc-mcherry assessed as reduction in body weight at 15 mg/kg, iv administered once a day for 45 days; type: organism-based; conditions: in vivo, 1080 h, time 45 day
SK-OV-3 = test: Inhibition of cell migration in human SK-OV-3 cells at 1.25 to 10 uM incubated for 48 hrs by scratch wound healing assay; type: functional, cell-based; conditions: dose 1.25-10 µM
MDA-MB-231 [5] = test: Antiproliferative activity against human MDA-MB-231 cells assessed as suppression of cell growth incubated for 72 hrs by SRB assay; type: functional, cell-based; conditions: MDA-MB-231, 72 h
MDA-MB-231 [6] = test: Downregulation of phosphorylated STAT2 protein expression in human MDA-MB-231 cells at 0.5 uM incubated for 24 hrs by Western blot analysis; type: functional, cell-based
MDA-MB-231 [7] = test: Downregulation of phosphorylated STAT3 protein expression in human MDA-MB-231 cells at 0.5 uM incubated for 24 hrs by Western blot analysis; type: functional, cell-based
MDA-MB-231 [8] = test: Upregulation of phosphorylated STAT5A protein expression in human MDA-MB-231 cells at 0.5 uM incubated for 24 hrs by Western blot analysis; type: functional, cell-based
[9] = AUC (0 to infinity) in ICR mouse at 15 mg/kg, iv administered as single dose and measured for 8 hrs by LC-MS/MS analysis; type: ADME, organism-based; set-up: time 8 hrs, dose 15 mg/kg, route iv; conditions: in vivo
[10] = Half life in ICR mouse at 15 mg/kg, iv administered as single dose and measured for 8 hrs by LC-MS/MS analysis; type: ADME, organism-based; conditions: in vivo
[11] = Cmax in ICR mouse at 15 mg/kg, iv administered as single dose and measured for 8 hrs by LC-MS/MS analysis; type: ADME, organism-based; set-up: time 8 hrs, dose 15 mg/kg, route iv; conditions: in vivo
[12] = molecular target: Inhibitor of nuclear factor kappa-B kinase subunit beta (Homo sapiens, UniProt O14920); test: Inhibition of IKKbeta (unknown origin)
[13] = Selectivity index, ratio of IC50 for ROCK2 (unknown origin) to IC50 for N-terminal His10-StrepII tagged human ROCK2 catalytic domain (1 to 553 residues) expressed in Sf9 insect cells
[14] = tested on: Rho-associated protein kinase 2 (Homo sapiens), O75116 [K121A]; test: Binding affinity to N-terminal His10-StrepII tagged human ROCK2 K121A mutant catalytic domain (1 to 553 residues) expressed in Sf9 insect cells assessed as change in melting temperature at 50 uM by SYPRO orange dye based thermal shift assay
[15] = tested on: Rho-associated protein kinase 2 (Homo sapiens), O75116 [D232A]; test: Binding affinity to N-terminal His10-StrepII tagged human ROCK2 D232A mutant catalytic domain (1 to 553 residues) expressed in Sf9 insect cells assessed as change in melting temperature at 50 uM by SYPRO orange dye based thermal shift assay
[16] = molecular target: Serine/threonine-protein kinase Chk1 (Homo sapiens) (UniProt O14757); test: Inhibition of human recombinant CHK1 at 125 nM
[17] = molecular target: 3-phosphoinositide-dependent protein kinase 1 (Homo sapiens) (UniProt O15530); test: Inhibition of human recombinant PDK1 at 125 nM
Chain of 3-phosphoinositide-dependent protein kinase 1 (Homo sapiens) (O15530 whole entry, looked up): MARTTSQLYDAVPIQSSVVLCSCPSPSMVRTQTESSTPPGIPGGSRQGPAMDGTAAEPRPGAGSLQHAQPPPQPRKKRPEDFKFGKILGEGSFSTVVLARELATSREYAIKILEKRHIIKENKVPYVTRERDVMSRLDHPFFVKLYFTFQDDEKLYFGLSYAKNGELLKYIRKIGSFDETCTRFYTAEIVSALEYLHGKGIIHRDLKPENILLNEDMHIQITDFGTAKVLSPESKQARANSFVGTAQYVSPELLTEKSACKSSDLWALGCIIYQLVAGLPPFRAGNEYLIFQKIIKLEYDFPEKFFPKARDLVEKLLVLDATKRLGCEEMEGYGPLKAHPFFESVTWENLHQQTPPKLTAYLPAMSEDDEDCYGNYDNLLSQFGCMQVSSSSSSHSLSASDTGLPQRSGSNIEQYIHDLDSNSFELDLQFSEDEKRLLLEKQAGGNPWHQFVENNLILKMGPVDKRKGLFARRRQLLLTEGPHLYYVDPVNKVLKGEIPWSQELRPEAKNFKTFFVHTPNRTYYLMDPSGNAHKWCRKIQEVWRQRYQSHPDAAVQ

Chain of Rho-associated protein kinase 2 (Homo sapiens), O75116 [D232A] (O75116 whole entry D232A, the tested form may be a part): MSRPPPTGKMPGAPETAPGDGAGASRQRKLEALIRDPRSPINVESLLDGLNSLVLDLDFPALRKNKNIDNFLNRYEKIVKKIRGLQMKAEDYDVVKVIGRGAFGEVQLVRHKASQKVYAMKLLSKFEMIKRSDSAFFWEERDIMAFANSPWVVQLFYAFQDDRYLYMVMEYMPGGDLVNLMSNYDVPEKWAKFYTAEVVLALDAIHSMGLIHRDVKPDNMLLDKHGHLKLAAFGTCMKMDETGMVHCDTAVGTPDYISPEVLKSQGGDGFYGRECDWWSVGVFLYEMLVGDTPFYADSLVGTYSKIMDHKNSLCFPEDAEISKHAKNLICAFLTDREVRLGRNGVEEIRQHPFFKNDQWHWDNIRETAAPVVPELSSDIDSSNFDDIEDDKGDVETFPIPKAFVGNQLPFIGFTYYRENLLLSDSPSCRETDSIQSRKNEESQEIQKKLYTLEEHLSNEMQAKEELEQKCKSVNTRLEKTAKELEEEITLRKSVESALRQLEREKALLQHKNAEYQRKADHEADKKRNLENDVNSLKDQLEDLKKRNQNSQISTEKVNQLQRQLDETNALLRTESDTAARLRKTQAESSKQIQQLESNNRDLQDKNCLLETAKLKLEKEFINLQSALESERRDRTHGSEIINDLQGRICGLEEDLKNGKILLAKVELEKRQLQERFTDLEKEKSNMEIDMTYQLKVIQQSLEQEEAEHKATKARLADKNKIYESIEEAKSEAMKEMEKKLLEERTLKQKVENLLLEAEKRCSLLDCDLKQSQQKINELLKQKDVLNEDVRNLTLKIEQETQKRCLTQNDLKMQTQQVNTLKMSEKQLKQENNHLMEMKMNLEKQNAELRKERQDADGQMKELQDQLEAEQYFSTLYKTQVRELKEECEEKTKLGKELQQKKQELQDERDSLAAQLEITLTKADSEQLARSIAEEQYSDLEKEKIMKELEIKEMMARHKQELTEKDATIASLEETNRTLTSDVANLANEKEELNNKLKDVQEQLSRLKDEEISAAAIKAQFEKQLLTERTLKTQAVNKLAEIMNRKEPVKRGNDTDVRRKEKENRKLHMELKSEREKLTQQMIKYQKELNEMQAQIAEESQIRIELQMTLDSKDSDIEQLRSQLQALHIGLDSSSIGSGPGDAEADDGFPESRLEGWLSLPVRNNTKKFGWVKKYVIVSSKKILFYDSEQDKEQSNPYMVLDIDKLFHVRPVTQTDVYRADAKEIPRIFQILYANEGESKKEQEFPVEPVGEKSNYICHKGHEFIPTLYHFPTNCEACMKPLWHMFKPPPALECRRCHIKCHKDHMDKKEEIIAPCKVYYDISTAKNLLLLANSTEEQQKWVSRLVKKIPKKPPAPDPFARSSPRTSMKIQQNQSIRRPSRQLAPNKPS
Chain of Rho-associated protein kinase 2 (Homo sapiens), O75116 [K121A] (O75116 whole entry K121A, the tested form may be a part): as the sequence (O75116 whole entry D232A, the tested form may be a part) above, with K121A, A232D counted along it
Chain of Serine/threonine-protein kinase Chk1 (Homo sapiens) (O14757 whole entry): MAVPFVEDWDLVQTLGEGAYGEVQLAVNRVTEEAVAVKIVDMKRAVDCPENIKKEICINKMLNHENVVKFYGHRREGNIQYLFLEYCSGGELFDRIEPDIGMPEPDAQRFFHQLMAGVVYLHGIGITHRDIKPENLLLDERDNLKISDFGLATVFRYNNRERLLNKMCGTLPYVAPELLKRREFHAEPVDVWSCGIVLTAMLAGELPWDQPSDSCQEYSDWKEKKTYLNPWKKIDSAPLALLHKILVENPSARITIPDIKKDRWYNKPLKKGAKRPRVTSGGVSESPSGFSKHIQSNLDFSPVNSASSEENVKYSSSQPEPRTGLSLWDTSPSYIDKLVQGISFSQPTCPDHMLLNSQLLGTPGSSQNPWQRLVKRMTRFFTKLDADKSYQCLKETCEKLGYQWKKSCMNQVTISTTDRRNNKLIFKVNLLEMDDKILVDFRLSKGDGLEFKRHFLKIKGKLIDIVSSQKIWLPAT
Chain of Inhibitor of nuclear factor kappa-B kinase subunit beta (O14920 whole entry, the tested form may be a part): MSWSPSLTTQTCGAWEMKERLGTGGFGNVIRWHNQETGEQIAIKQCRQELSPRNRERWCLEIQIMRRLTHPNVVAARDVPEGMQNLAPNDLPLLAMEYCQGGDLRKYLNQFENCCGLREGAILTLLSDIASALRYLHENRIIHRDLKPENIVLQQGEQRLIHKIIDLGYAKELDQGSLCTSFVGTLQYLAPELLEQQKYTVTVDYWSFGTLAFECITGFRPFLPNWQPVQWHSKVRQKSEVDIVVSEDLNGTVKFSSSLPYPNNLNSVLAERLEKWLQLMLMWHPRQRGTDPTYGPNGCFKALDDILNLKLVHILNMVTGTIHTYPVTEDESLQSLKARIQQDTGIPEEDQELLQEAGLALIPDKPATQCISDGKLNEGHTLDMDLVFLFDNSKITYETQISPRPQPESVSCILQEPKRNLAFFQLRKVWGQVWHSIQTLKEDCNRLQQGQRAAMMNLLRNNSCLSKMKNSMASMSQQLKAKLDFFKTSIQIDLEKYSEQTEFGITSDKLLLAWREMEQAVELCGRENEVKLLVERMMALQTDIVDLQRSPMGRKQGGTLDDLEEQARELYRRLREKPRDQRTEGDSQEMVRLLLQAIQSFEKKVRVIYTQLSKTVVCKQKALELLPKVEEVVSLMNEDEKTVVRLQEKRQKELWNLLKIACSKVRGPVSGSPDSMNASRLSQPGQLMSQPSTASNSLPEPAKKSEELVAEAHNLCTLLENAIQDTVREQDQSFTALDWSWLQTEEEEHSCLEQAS
Chain of Rho-associated protein kinase 2 (O75116 whole entry, the tested form may be a part): as the sequence (O75116 whole entry D232A, the tested form may be a part) above, with A232D counted along it

- IC50 [1]: 6 nM
- IC50 (MDA-MB-231 [5]): 7190 nM
- AUC(0-inf) [9]: 6250 ng·h/mL
- half-life [10]: 1.51 h
- Cmax [11]: 21600 ng/mL
- IC50 [12]: 139 nM
- Activity [14]: inactive
- Activity [15]: inactive
- inhibition [16]: Active
- inhibition [17]: Active
Compound: O=C1NCc2c1c1c3cc(O)ccc3[nH]c1c1[nH]c3ccccc3c21
- Activity (MDA-MB-231 [2]): Active
- inhibition (MDA-MB-231 [3]): Dose-Dependent Effect
- Activity [4]: Non-Toxic
- inhibition (SK-OV-3): Active
- Activity (MDA-MB-231 [6]): Active
- Activity (MDA-MB-231 [7]): Active
- Activity (MDA-MB-231 [8]): Active
- Ratio IC50 [13]: > 100
